Test results: BindingDB's records for doi:10.1021/jm030272n (Procter & Gamble Pharmaceuticals, 2003)

Assays:
[1] = target: DNA gyrase (Escherichia coli); assay: Inhibition of Escherichia coli Quinolone resistant gyrase Supercoiling activity
[2] = target: DNA gyrase (Escherichia coli); assay: Inhibition effect on Escherichia coli Wild Type DNA gyrase Supercoiling activity

Question: `N[C@H]1CCCN(c2c(F)cc3c(=O)c(C(=O)O)cn(C4CC4)c3c2F)C1` was tested. Which IC50 [1] did it give?
Answer: 71.5 µM

Question: And the IC50 [2]?
Answer: 8.8 µM
